Test results: patent US7067113B2, “Methods for identifying compounds for regulating muscle mass or function using dopamine receptors” (The Procter & Gamble Company, priority 2002, dated 2006)

What was measured:
[1] = system: casting-induced (disuse) atrophy in mice; test: leg casting disuse atrophy model; format: in vivo, mouse; conditions: male mice
Protocol: Legend: A—physiological saline (control); B—SKF 81297 (0.3 mg/kg)+theophylline; C—SKF 81297 (1.0 mg/kg)+theophylline; D—SKF 81297 (3.0 mg/kg)+theophylline; *−p≦0.05 compared to saline. Following casting of the right hind leg, male mice were injected subcutaneously in the midscapular region twice daily, with SKF 81297 or vehicle control (physiological saline) for ten days at the daily delivered dose indicated. SKF 81297 was co-administered with twice daily intra-peritoneal dosing of the phosphodiesterase inhibitor theophylline (30 mg/kg). On day ten, the tibialis anterior muscle was removed and weighed to determine the degree of atrophy.
Legend: A—physiological saline (control); B—fenoldopam (0.3 mg/kg); C—fenoldopam (1.0 mg/kg); D—fenoldopam (3.0 mg/kg); *−p≦0.05 compared to saline. Following casting of the right hind leg, male mice were injected subcutaneously in the midscapular region twice daily, with fenoldopam or vehicle control (physiological saline) for ten days at the daily delivered dose indicated. On day ten, the medial gastrocnemius muscle was removed and weighed to determine the degree of atrophy.
The leg casting disuse atrophy model involves casting one hind leg of an animal from the knee down through the foot. Typically, muscle mass is reduced 20–40% after ten days of casting. Following casting, test compounds are administered by injection or by continuous infusion via implantation of an osmotic minipump (e.g., Alzet, Palo Alto, Calif.) to determine their effect on leg casting induced skeletal muscle atrophy. At various times following leg casting, the extent of atrophy in the affected muscles is analyzed as described above for the denervation model.

[2] = system: mouse sciatic nerve denervation atrophy model; test: mouse sciatic nerve denervation atrophy model; format: in vivo; conditions: male mice
Protocol: Legend: A—physiological saline (control); B—SKF 81297 (0.3 mg/kg)+theophylline; C—SKF 81297 (1.0 mg/kg)+theophylline; D—SKF 81297 (3.0 mg/kg)+theophylline. *−p≦0.05 compared to saline. Following denervation of the right sciatic nerve, male mice were injected subcutaneously in the midscapular region twice daily with SKF 81297, at the doses indicated above or vehicle control (physiological saline) for nine days. SKF 81297 was co-administered with twice daily intra-peritoneal dosing of the phosphodiesterase inhibitor theophylline (30 mg/kg). On day nine, the tibialis anterior and medial gastrocnemius muscles were removed and weighed to determine the degree of atrophy.
The sciatic nerve denervation atrophy model involves anesthetizing the animal followed by the surgical removal of a short segment of either the right or left sciatic nerve, e.g., in mice the sciatic nerve is isolated approximately at the midpoint along the femur and a 3–5 mm segment is removed. This denervates the lower hind limb musculature resulting in atrophy of these muscles. Typically, innervation to the biceps femoris is left intact to provide satisfactory motion of the knee for virtually normal ambulation. Typically, in untreated animals, muscle mass of the denervated muscles is reduced 30–50% ten days following denervation. Following denervation, test compounds are administered e.g., by injection or by continuous infusion, e.g., via implantation of an osmotic minipump (e.g., Alzet, Palo Alto, Calif.), to determine their effect on denervation induced skeletal muscle atrophy. At various times following denervation, the animals are euthanized and lower leg muscles are dissected rapidly from both the denervated and nondenervated legs, the muscles, cleaned of tendons and connective tissue, are weighed. The extent of atrophy in the affected muscles is analyzed, for example, by measuring muscle mass, muscle cross-sectional area, myofiber cross-sectional area or contractile protein content.

SMILES | disuse-induced atrophy of the medial gastrocnemius muscle (muscle weight) ([1]; right hind leg casted, s.c. twice daily for ten days, 0.3, 1.0, 3.0 mg/kg, FIG. 3) | denervation-induced atrophy of the tibialis anterior muscle (muscle weight) ([2]; s.c. twice daily for nine days, 0.3, 1.0, 3.0 mg/kg, + theophylline 30 mg/kg i.p. twice daily, FIG. 1A) | denervation-induced atrophy of the medial gastrocnemius muscle (muscle weight) ([2]; s.c. twice daily for nine days, 0.3, 1.0, 3.0 mg/kg, + theophylline 30 mg/kg i.p. twice daily, FIG. 1B) | hypertrophy in the normal (non-denervated) tibialis anterior muscle ([2]; s.c. twice daily for nine days, + theophylline 30 mg/kg i.p., FIG. 1A) | hypertrophy in the normal (non-denervated) medial gastrocnemius muscle ([2]; s.c. twice daily for nine days, + theophylline 30 mg/kg i.p., FIG. 1B) | disuse-induced atrophy of the tibialis anterior muscle (muscle weight) ([1]; right hind leg casted, s.c. twice daily for ten days, 0.3, 1.0, 3.0 mg/kg, + theophylline 30 mg/kg i.p. twice daily, FIG. 2) | hypertrophy of the tibialis anterior muscles of the non-casted leg ([1]; s.c. twice daily for ten days, + theophylline 30 mg/kg i.p., FIG. 2)
Oc1ccc(C2CNCCc3c2cc(O)c(O)c3Cl)cc1 (stereo not shown) [Fenoldopam, 6-chloro-2,3,4,5-tetrahydro-1-(4-hydroxyphenyl)-[1H]-3-benzazepine-7,8-diol] | inhibits |  |  |  |  |  | 
Oc1cc2c(c(Cl)c1O)CCNCC2c1ccccc1 (stereo not shown) [SKF 81297, 6-chloro-7,8-dihydroxyl-1-phenyl-2,3,4,5-tetrahydro-1H-3-benzazepine] |  | inhibits | inhibits | induces hypertrophy | induces hypertrophy | inhibits | statistically significant hypertrophy
